Results on two compounds are retold here after patent US20040131701A1, “Method to treat infectious diseases and/or to enhance antimicrobial efficacy of drugs” (Virocell Inc., priority 2000, published 2004).

In one data set the test system is primary human MDM. The data set is described as follows: MTT toxicity in primary human MDM. Type of data set: cell-based. The conditions noted are these: 48 h, 10 and 20 μM. The source says:
Target cells used in the present invention include human CD4-expressing T lymphoid Sup-T1, PM1, and Jurkat cells. Moreover, primary human monocyte-derived macrophages (MDM) and peripheral blood mononuclear cells (PBMC′) were also used in the current work, MDM were obtained using a standard technique. In brief, the mononuclear cell fraction was isolated by Ficoll-Hypaque centrifugation. Peripheral blood mononuclear cells were suspended in seeding medium (RPMI 1640+20% fetal calf serum+10% human serum type AB) in tissue culture 48-well plates (3×10^6 cells/ml and 500 μl per well). Five days after the initiation of the cultures, nonadherent cells were removed by rinsing the cultures three times with phosphate buffered saline. Next, such adherent cells were maintained in RPMI 1640 medium supplemented with 20% fetal calf serum.
Putative toxicity of bpV[pic] and bpV[phen] molecules was next assessed by adding the tetrazolium salt MTT to primary human MDM that were cultured for 48 h under the constant pressure of the indicated concentrations of bpV compounds.

Data set [1] relates to recombinant luciferase-encoding virions (NL4-3 backbone) pseudotyped with macrophage-tropic ADA envelope. The data set is described as follows: Infection of primary human MDM with luciferase-encoding virions, ADA envelope. It is filed as cell-based, HIV-1. The conditions noted are these: MDM, 10 μM bpV[pic] or 5 μM bpV[phen], pretreatment 5 to 120 min, 48 h. The source says: (§1) Fully infectious viral entities were generated by calcium phosphate transfection of 293T with pNL4-3 vector (T-tropic virions) as described below. Recombinant luciferase-encoding virus particles pseudotyped with the appropriate Env proteins have been used in our series of investigations. […] This test is based on the molecular construct pNL4-3-Luc-E-R+, a vector that carries the gene for firefly luciferase inserted into the nef gene of the pNL4-3 provirus and contains also a frameshift at the 5′ end of env (nt 5950) that prevents expression of the envelope glycoproteins. Progeny viruses were generated by cotransfecting 293T cells with pNL4-3-Luc-E-R+ and a plasmid DNA encoding for the appropriate envelope glycoproteins (T or macrophage-tropic). Briefly, a typical transfection experiment was performed as follow. In brief, 293T cells were plated 24 h before transfection at a concentration of 5×10^5 cells per 3 ml of DMEM into each well of 6-well plates. All solutions were brought to room temperature before use. Immediately before transfection, DNA was added to 25 μl of 2.5M CaCl2 and the volume was completed to 250 μl with distilled water. This solution was then added drop by drop to 250 μl of 2×HBS solution (280 mM NaCl, 50 mM HEPES, 1.5 mM Na2HPO4, pH 7.05) and the resulting mixture was stored at room temperature for 5 min. This DNA-HBS mixture was finally added drop by drop to plated 293T cells before incubation at 37° C. under a 5% CO2atmosphere. At 16 h after transfection, cells were washed twice with 3 ml of PBS and were incubated for an additional 24 h with 3 ml of DMEM supplemented with 10% FBS. Virion-containing supernatants were filtered through a 0.45-μm cellulose acetate membrane (Millipore, Mass.), aliquoted in 200 μl fractions, and were finally frozen at −85° C. until needed. Virus stocks were normalized for virion content using a commercial assay for the viral major core protein p24 (Organon Teknika, Durham, N.C.).
(§2) In brief, 100 μl of cell-free supernatant were discarded from each well and 25 μl of cell culture lysis buffer 5×(125 mM Tris phosphate [pH 7.8], 10 mM DTT, 5% Triton X-100, and 50% glycerol) were added to the wells before incubation at room temperature for 30 min. An aliquot of cell lysate (20 μl) was mixed with 100 μl luciferase assay buffer (20 mM tricine, 1.07 mM (MgCO3)4. Mg(OH)2.5H2O, 2.67 mM MgSO4, 0.1 mM EDTA, 270 μM coenzyme A, 470 μM luciferin, 530 μM ATP, and 33.3 mM DTT). Luciferase activity was monitored using a microplate luminometer (MLX; Dynex Technologies, Chantilly, Va.).

Data set [2] relates to T-tropic strain HIV-1NL4-3. The data set is described as follows: Replication of HIV-1 in Sup-T1 cells (p24 in culture supernatants). It is filed as cell-based. The note with it: 10 days, all three tested concentrations. The source says: (§3) Fully infectious viral entities were generated by calcium phosphate transfection of 293T with pNL4-3 vector (T-tropic virions) as described below. Recombinant luciferase-encoding virus particles pseudotyped with the appropriate Env proteins have been used in our series of investigations. Such a system provides a highly sensitive and reproducible assay to monitor single-cycle viral infection events. This test is based on the molecular construct pNL4-3-Luc-E-R+, a vector that carries the gene for firefly luciferase inserted into the nef gene of the pNL4-3 provirus and contains also a frameshift at the 5′ end of env (nt 5950) that prevents expression of the envelope glycoproteins. […]
Sup-T1 cells were seeded at a density of 10^5 cells per well (100 μl) in 96-well flat-bottom, plates. […] Cells were incubated for 10 days and kinetics of viral infection was assessed by measuring in cell-free culture supernatants the major core viral p24 protein with the use of a commercial enzymatic assay (Organon Teknika). Putative toxicity of bpV molecules was assessed by adding the tetrazolium salt MTT to Sup-T1 cells that were cultured for 10 days under the constant pressure of the indicated concentrations of bpV[pic] and bpV[phen] molecules.

Data set [3] concerns T-tropic recombinant luciferase-encoding HIV-1 particles. The data set is described as follows: Infection of PM1 cells with luciferase reporter virus, T-tropic envelope. Type of data set: cell-based. The note with it: 5 min pretreatment, 72 h.
From the text: as §3, with “glycoproteins. Progeny viruses were generated by cotransfecting 293T cells with pNL4-3-Luc-E-R+ and a plasmid DNA encoding for the appropriate envelope glycoproteins (T or macrophage-tropic). Briefly, a typical transfection experiment was performed as follow.” for “glycoproteins.”
(§4) In brief, 100 μl of cell-free supernatant were discarded from each well and 25 μl of cell culture lysis buffer 5×(125 mM Tris phosphate [pH 7.8], 10 mM DTT, 5% Triton X-100, and 50% glycerol) were added to the wells before incubation at room temperature for 30 min. […] Luciferase activity was monitored using a microplate luminometer (MLX; Dynex Technologies, Chantilly, Va.). […]
On the technique in general: In a reporter assay the amount or activity of a reporter protein is the signal.

In data set [4] the test system is macrophage-tropic recombinant luciferase-encoding HIV-1 particles. The data set is described as follows: Infection of PM1 cells with luciferase reporter virus, macrophage-tropic envelope. It is filed as cell-based. The conditions noted are these: 5 min pretreatment, 72 h.
From the text: as §3, with “glycoproteins. Progeny viruses were generated by cotransfecting 293T cells with pNL4-3-Luc-E-R+ and a plasmid DNA encoding for the appropriate envelope glycoproteins (T or macrophage-tropic). Briefly, a typical transfection experiment was performed as follow.” for “glycoproteins.”
as §4

Data set [5] concerns recombinant luciferase-encoding virions (NL4-3 backbone) pseudotyped with T-tropic HXB-2D envelope. The data set is described as follows: Infection of Jurkat cells with luciferase-encoding virions, HXB-2D envelope. The conditions noted are these: antiviral agent alone 0.05 μM, 72 h. It is filed as cell-based, HIV-1.
From the text: as §1, §2
We attempted to define any putative interaction (additive, synergistic or antagonistic) between bpV compounds and currently approved anti-HIV-1 agents (AZT/Zidovudine, 3TC/Epivir/Lamivudine). […]

With `O.O.O.OO.OO.[K+].[OH-].[V].c1cnc2c(c1)ccc1cccnc12` [bpV[phen], K[VO(O2)2phen]0.3H2O], in the data set on primary human MDM, the “toxicity (MTT)” value is on record as “detectable toxic effect”. Moreover, the “anti-HIV-1 efficacy (luciferase activity)” value in data set [1] is given as “maintained over several pretreatment periods”. Further, the “HIV-1 production (p24)” value in data set [2] was “dramatic decrease of HIV-1 production”. In addition, the “infection (luciferase activity)” value in data set [3] and in data set [4] was “dose-dependent inhibition of infection” in each case.
Take `Cc1cn([C@H]2C[C@H](N=[N+]=[N-])[C@@H](CO)O2)c(=O)[nH]c1=O` [AZT, Zidovudine, reference compound]: the “virus infection (luciferase activity)” value in data set [5] is “decreased”.
